Activity calls are given as the source filed them.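 How the source made its calls: active means growth-inhibition EC50 no more than tenfold above the top tested dose; inconclusive means flat fit between 30% and 70% inhibition, or unreliable fit; inactive means EC50 more than tenfold above the top tested dose.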

This assay has as its system E. coli NEB5alpha growth, BacTiter-Glo luminescence, 4 h. The experiment in a line: antibacterial activity against E. coli NEB5alpha – luminescence, counter-screen for MEX-5/POS-1 RNA-binding inhibitor project, dose response (AID 1959).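 Further: pUC19-transformed ampicillin-resistant cells grown in LB with ampicillin.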 A general note: Counterscreens check selectivity or assay interference.
As to `CCN(CC)C(=O)CSc1nnc2nnc3cc(Cl)ccc3n12`, the EC50 (as a rule, the concentration giving half of the maximal effect) is > 11 µM (inactive).
The figure for `COc1cc(OC)c(C2C(C#N)=C(N)OC3=C2C(=O)CC(C)C3)cc1OC` (centres undefined) is > 11 µM (inactive); for `CC1(OC(=O)C2CCCC2)C(=O)C=C2C=C(C3CC3)OC=C2C1=O` (centres undefined) it is > 11 µM (inactive); for `COc1ccc(C2CC(c3cccs3)=NN2c2ccc(C=O)cc2)cc1` (centres undefined) it is > 11 µM (inactive).
`Cc1ccc2nc(-c3ccc(O)c(O)c3)cn2c1`: the EC50 was > 11 µM (inactive).
The figure for `CCCCc1cn([C@@H](CCCCN)C(=O)N2CCNCC2)nn1` is > 11 µM (inactive); for `O=C(Cc1ccccc1)Nc1ccc(N2CCOCC2)cc1N1CCOCC1` it is > 11 µM (inactive).
For `Oc1ccc(-c2cn3ccccc3n2)cc1O`, the EC50 was > 11 µM (inactive).
Turning to `CCNC(=O)c1cc2c(=O)n3cccc(C)c3nc2n(CCc2ccccc2)c1=N`, the EC50 is > 11 µM (inactive).
For `COc1ccc(N=Cc2c(O)ccc3ccccc23)cc1` the value was > 11 µM (inactive); for `COc1ccc(Nc2ncnc3nc[nH]c23)cc1OC`, > 11 µM (inactive).
For `CCN1C/C(=C/c2cccs2)c2nc3ccccc3c(C(=O)O)c2C1` the value was > 11 µM (inactive); for `C=CCOc1cccc(C2C(C(=O)c3ccco3)=C(O)C(=O)N2Cc2ccco2)c1` (centres undefined), > 11 µM (inactive).
Consider `O=c1oc2c3c4c(cc2s1)CCCN4CCC3`, for which the EC50 is > 11 µM (inactive).
The figure for `Nc1ccc2nc(CCCO)[nH]c2c1` is > 11 µM (inactive); for `CCC(=O)Nc1ccc2nc3c(=O)[nH]c(=S)[nH]c3nc2c1` it is > 11 µM (inactive).
For `Cc1cccn2c(=O)c3cc(C(=O)NCCN4CCOCC4)c(=N)n(Cc4cccnc4)c3nc12` the value was > 11 µM (inactive); for `O=c1[nH]c(=O)n(-c2ccc(Cl)cc2)c(O)c1C=NCCN1CCCCC1`, > 11 µM (inactive); for `COc1ccc(C2C(C#N)=C(N)OC3=C2C(=O)CC(C)(C)C3)cc1Cn1nc(C)c([N+](=O)[O-])c1C` (centres undefined), > 11 µM (inactive).
In the case of `COC(=O)c1ccc(C2Nc3ccc(/C(C)=N/NC(=O)C(OC)c4ccccc4)cc3C3C=CCC32)cc1` (centres undefined), the EC50 was > 11 µM (inactive).
For `COc1ccc2nc3ccccc3nc2c1NC(=O)c1ccc(Br)cc1` the value was > 11 µM (inactive); for `CN1C(=O)/C(=C/c2ccc(-c3ccccc3[N+](=O)[O-])o2)SC1=Nc1ccc(Cl)c(C(=O)O)c1`, > 11 µM (inactive); for `CCc1ccc(/C=C2\SC(=S)N(CCCC(=O)Nc3ccccn3)C2=O)cc1`, > 11 µM (inactive).
Take `O=C(O)CSc1cc(NS(=O)(=O)c2ccc(Cl)cc2)c2ccccc2c1O`: the EC50 was > 11 µM (inactive).
For `CCOc1c(C=C(C#N)C#N)c2ccccc2n1CC` the value was > 11 µM (inactive).
With `CCOC(=O)c1c(NC(=O)Nc2ccc(F)cc2)sc2c1CCN(C)C2`, the EC50 is > 11 µM (inactive).
For `Oc1ccc(/C=N/NC(=S)Nc2cccnc2)c(O)c1O` the value was > 11 µM (inactive).
`C=CCOc1ccc(C2OC34CCCCC3C(C#N)(C#N)C2(C#N)C(=N)O4)cc1` (centres undefined): the EC50 is > 11 µM (inactive).
`COc1ccc(C(=O)/C=C/Nc2ccc([N+](=O)[O-])cc2C)c(OC)c1`: the EC50 is > 11 µM (inactive).
Turning to `CC(C)(C)OC(=O)NCCCCC1=CC2=CC(=O)C(C)(OC(=O)c3ccco3)C(=O)C2=CO1` (centres undefined), the EC50 was > 11 µM (inactive).
As to `O=C(O)c1ccccc1-n1c2ccccc2c2ccccc21`, the EC50 is > 11 µM (inactive).
As to `Clc1cc(-c2ccc(/C=N/n3cnnc3)o2)ccc1Br`, the EC50 is > 11 µM (inactive).
The figure for `O=c1ccc2[n+]([O-])c3ccc(O)cc3oc-2c1` is > 11 µM (inactive).
For `Cc1cc(=O)oc2c(CN3CCC(C)CC3)c(O)c(Cl)cc12`, the EC50 was > 11 µM (inactive).

The record behind these values is PubChem BioAssay AID1959 (Broad Institute, 2009).
